These results are taken from ChEMBL document CHEMBL2331100, “Inhibition pattern of sulfamide-related compounds in binding to carbonic anhydrase isoforms I, II, VII, XII and XIV” (Bioorg Med Chem, 2013).

Molecules are shown by their SMILES.

In one assay the target is Carbonic anhydrase 7 (Homo sapiens, UniProt P43166). Briefly: Inhibition of human carbonic anhydrase 7 preincubated for 15 mins by CO2 hydration stopped-flow assay.
A further assay has as its target Carbonic anhydrase 12 (Homo sapiens, UniProt O43570). Briefly: Inhibition of human carbonic anhydrase 12 preincubated for 15 mins by CO2 hydration stopped-flow assay.
Another assay deals with Carbonic anhydrase 14 (Homo sapiens, UniProt Q9ULX7). Briefly: Inhibition of human carbonic anhydrase 14 preincubated for 15 mins by CO2 hydration stopped-flow assay.
Chain of Carbonic anhydrase 14 (Q9ULX7 whole entry): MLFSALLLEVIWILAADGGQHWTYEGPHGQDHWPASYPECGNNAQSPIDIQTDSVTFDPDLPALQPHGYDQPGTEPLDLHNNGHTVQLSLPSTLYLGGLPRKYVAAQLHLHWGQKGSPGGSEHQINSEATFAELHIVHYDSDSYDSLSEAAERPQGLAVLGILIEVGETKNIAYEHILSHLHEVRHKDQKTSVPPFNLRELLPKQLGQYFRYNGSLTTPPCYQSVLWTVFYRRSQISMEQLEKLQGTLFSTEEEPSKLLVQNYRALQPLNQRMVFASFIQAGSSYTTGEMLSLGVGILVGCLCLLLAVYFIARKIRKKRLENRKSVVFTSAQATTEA
Another assay concerns the target Carbonic anhydrase 2 (Homo sapiens, UniProt P00918). The assay is described as follows: Inhibition of human carbonic anhydrase 2 preincubated for 15 mins by CO2 hydration stopped-flow assay.
For another assay, the target named is Carbonic anhydrase 1 (Homo sapiens, UniProt P00915). Briefly: Inhibition of human carbonic anhydrase 1 preincubated for 15 mins by CO2 hydration stopped-flow assay.
Chain of Carbonic anhydrase 1 (P00915 whole entry): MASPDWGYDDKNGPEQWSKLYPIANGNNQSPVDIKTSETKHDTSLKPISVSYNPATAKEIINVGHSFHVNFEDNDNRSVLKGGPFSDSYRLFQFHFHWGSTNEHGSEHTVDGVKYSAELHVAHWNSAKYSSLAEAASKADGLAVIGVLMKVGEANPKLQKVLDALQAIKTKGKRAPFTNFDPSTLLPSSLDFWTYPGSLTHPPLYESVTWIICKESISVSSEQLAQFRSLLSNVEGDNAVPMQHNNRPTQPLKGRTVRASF

Chain of Carbonic anhydrase 12 (O43570 whole entry): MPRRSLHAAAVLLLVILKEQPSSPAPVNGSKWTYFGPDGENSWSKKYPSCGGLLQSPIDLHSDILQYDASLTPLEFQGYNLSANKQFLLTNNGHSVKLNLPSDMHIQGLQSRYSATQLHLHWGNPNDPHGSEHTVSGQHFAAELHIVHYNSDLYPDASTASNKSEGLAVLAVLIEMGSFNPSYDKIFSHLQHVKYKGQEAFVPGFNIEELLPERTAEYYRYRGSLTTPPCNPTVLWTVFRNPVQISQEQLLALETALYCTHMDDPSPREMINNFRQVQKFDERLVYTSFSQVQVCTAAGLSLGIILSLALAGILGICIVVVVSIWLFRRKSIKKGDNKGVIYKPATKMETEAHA
Chain of Carbonic anhydrase 7 (P43166 whole entry): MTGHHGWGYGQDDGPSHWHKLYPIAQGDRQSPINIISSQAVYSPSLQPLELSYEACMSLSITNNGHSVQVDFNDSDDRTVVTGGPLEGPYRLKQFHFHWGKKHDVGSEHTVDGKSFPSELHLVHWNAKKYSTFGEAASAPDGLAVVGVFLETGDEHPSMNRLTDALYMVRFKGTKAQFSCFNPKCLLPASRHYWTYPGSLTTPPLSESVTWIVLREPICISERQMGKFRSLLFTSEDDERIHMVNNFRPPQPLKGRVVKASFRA

One may read the Ki as the equilibrium dissociation constant of an inhibitor or competing ligand from its target. Low values mean higher affinity, high ones lower affinity. On to `O=S(=O)(NCCc1ccccc1)NCCc1ccccc1`, for which the Ki at Carbonic anhydrase 7, on Carbonic anhydrase 12, at Carbonic anhydrase 14, on Carbonic anhydrase 2 and at Carbonic anhydrase 1 was greater than 200 µM each time.
On to `NS(=O)(=O)NCc1ccccc1`, for which the Ki at Carbonic anhydrase 7 worked out at 0.3 µM; at Carbonic anhydrase 12 it was 0.94 µM; on Carbonic anhydrase 14, 0.84 µM; at Carbonic anhydrase 2, 0.12 µM; at Carbonic anhydrase 1 it was 0.13 µM.
Taken in the same sequence, the figures for `CCCCNS(=O)(=O)NCCC(=O)OC` were greater than 200 µM, 61.2 µM, 8.37 µM, greater than 200 µM and greater than 200 µM.
For `O=S(=O)(NC1CC1)NC1CC1`, in that order: 0.16 µM, 0.77 µM, 8.79 µM, greater than 200 µM and greater than 200 µM.
For `CCCNS(=O)(=O)NCCC`, in that order: greater than 200 µM, greater than 200 µM, greater than 200 µM, 124 µM and 4.69 µM.
With `CCCCN(CCCC)S(=O)(=O)N(CCCC)CCCC`, the Ki at Carbonic anhydrase 7, on Carbonic anhydrase 12, on Carbonic anhydrase 14, at Carbonic anhydrase 2 and at Carbonic anhydrase 1 was greater than 200 µM each time.
`CC(C)(C)OC(=O)NS(=O)(=O)NCc1ccccc1`: the Ki worked out at 0.17 µM on Carbonic anhydrase 7; 0.89 µM on Carbonic anhydrase 12; 40.4 µM on Carbonic anhydrase 14; 161 µM on Carbonic anhydrase 2; 8.84 µM on Carbonic anhydrase 1.
`CCCN(CCC)S(N)(=O)=O`: the Ki on Carbonic anhydrase 7 is greater than 200 µM; at Carbonic anhydrase 12 it was 3.53 µM; at Carbonic anhydrase 14, 7.1 µM; at Carbonic anhydrase 2, 60.3 µM; at Carbonic anhydrase 1, 24.9 µM.
On to `CCCC(CCC)COS(N)(=O)=O`, for which the Ki on Carbonic anhydrase 7 is 4.3 µM; at Carbonic anhydrase 12, 0.89 µM; on Carbonic anhydrase 2, 1.92 µM; on Carbonic anhydrase 1, 2.98 µM.
As for `COC(=O)[C@H](C)NS(=O)(=O)NC(=O)OC(C)(C)C`, the inhibition constant (Ki) on Carbonic anhydrase 7 was greater than 200 µM; on Carbonic anhydrase 12, 54.5 µM; at Carbonic anhydrase 14, 5.38 µM; on Carbonic anhydrase 2, greater than 200 µM; on Carbonic anhydrase 1, greater than 200 µM.
`CCCN(CCC)S(=O)(=O)NC(=O)OC(C)(C)C`: the Ki at Carbonic anhydrase 7 was 0.32 µM; at Carbonic anhydrase 12, 0.91 µM; on Carbonic anhydrase 2 it was greater than 200 µM; at Carbonic anhydrase 1, 6.88 µM.
With `O=S(=O)(NC1CCCCC1)NC1CCCCC1`, the Ki at Carbonic anhydrase 7 came to 0.32 µM; at Carbonic anhydrase 12, 0.7 µM; on Carbonic anhydrase 14, 9.94 µM; on Carbonic anhydrase 2, 100 µM; at Carbonic anhydrase 1, 6.64 µM.
With `O=S(=O)(N1CCOCC1)N1CCOCC1`, the Ki at Carbonic anhydrase 7 was 0.47 µM; on Carbonic anhydrase 12, 9.1 µM; on Carbonic anhydrase 14 it was 48.8 µM; at Carbonic anhydrase 2 it was 135 µM; on Carbonic anhydrase 1 it was greater than 200 µM.
Consider `CCCN(CCC)S(=O)(=O)N(CCC)CCC`, for which the Ki at Carbonic anhydrase 7 is greater than 200 µM; on Carbonic anhydrase 12, greater than 200 µM; at Carbonic anhydrase 2, greater than 200 µM; on Carbonic anhydrase 1, 9.35 µM.
Consider `COC(=O)CNS(=O)(=O)NC(=O)OC(C)(C)C`, for which the Ki at Carbonic anhydrase 7 was greater than 200 µM; on Carbonic anhydrase 12, 56.3 µM; at Carbonic anhydrase 14, 5.92 µM; on Carbonic anhydrase 2, 55.7 µM; at Carbonic anhydrase 1, greater than 200 µM.
In the case of `COC(=O)CCNS(=O)(=O)NCCC(=O)OC`, the Ki is greater than 200 µM at Carbonic anhydrase 7, 70.8 µM at Carbonic anhydrase 12, greater than 200 µM on Carbonic anhydrase 2 and greater than 200 µM on Carbonic anhydrase 1.
In the case of `COC(=O)CCNS(=O)(=O)Oc1ccccc1O`, the Ki was 68.7 µM on Carbonic anhydrase 7; 65 µM at Carbonic anhydrase 12; 8.53 µM on Carbonic anhydrase 14; greater than 200 µM on Carbonic anhydrase 2; 88.7 µM at Carbonic anhydrase 1.
For `COC(=O)[C@@H](NS(=O)(=O)N[C@H](C(=O)OC)C(C)C)C(C)C`, the Ki at Carbonic anhydrase 7 is greater than 200 µM; at Carbonic anhydrase 12, 73 µM; on Carbonic anhydrase 2, greater than 200 µM; at Carbonic anhydrase 1, greater than 200 µM.
In the case of `COC(=O)[C@H](C)NS(=O)(=O)N[C@@H](C)C(=O)OC`, the Ki at Carbonic anhydrase 7 was greater than 200 µM; at Carbonic anhydrase 12, greater than 200 µM; at Carbonic anhydrase 14, 7.66 µM; on Carbonic anhydrase 2, greater than 200 µM; at Carbonic anhydrase 1, greater than 200 µM.
`CCCC(CCC)CN(C(=O)OC(C)(C)C)S(=O)(=O)NCCC(=O)OC`: the Ki at Carbonic anhydrase 7 is greater than 200 µM; on Carbonic anhydrase 12 it was 65.4 µM; on Carbonic anhydrase 14 it was 8.09 µM; at Carbonic anhydrase 2, 41.1 µM; on Carbonic anhydrase 1, 62.2 µM.
As for `O=S(=O)(NCc1ccccc1)NCc1ccccc1` [BENZYL(BENZYLSULFAMOYL)AMINE], the Ki on Carbonic anhydrase 7 was 0.38 µM; on Carbonic anhydrase 12 it was 81.5 µM; at Carbonic anhydrase 2, 0.65 µM; on Carbonic anhydrase 1, greater than 200 µM.
Regarding `CCCCNS(=O)(=O)NCCCC` [BUTYL(BUTYLSULFAMOYL)AMINE], the Ki at Carbonic anhydrase 7 turned out to be 0.41 µM; at Carbonic anhydrase 12, 0.69 µM; at Carbonic anhydrase 14, 9.79 µM; on Carbonic anhydrase 2 it was 66.3 µM; at Carbonic anhydrase 1, 6.64 µM.
With `CCCCCCOS(N)(=O)=O` [HEXYL SULFAMATE], the Ki stood at 0.7 µM at Carbonic anhydrase 7; 0.73 µM at Carbonic anhydrase 12; 0.82 µM on Carbonic anhydrase 14; 2.82 µM on Carbonic anhydrase 2; 3.66 µM at Carbonic anhydrase 1.
